Source: patent publication US5380834A, “Immuno-suppressive agent” (Ishihara Sangyo Kaisha Ltd., priority 1992, dated 1995)
Values after ≈ are worked out from the molar mass of the structure shown.

How the values were obtained:
[1] = system: murine thymocytes; assay: Effects on the mitogenic response by murine thymocytes (Con A stimulation, 3H-TdR uptake); type: cell-based, BALB/c murine; conditions: Mus musculus, Thymocyte; BALB/c thymocytes, Con A 5 μg/ml, 48 hours, 3H-TdR uptake; read-out: IC50 value, a (mitogenic response of murine thymocytes)
Method: Using BALB/c murine thymocytes, the effect of the compound of the formula (I) on the mitogenic response of lymphocytes to the stimulation by concanavalin A (hereinafter referred to simply as Con A, Product No. L-1000, manufactured by Vector Laboratories) was studied. Namely, 4×10^5 murine thymocytes were cultured for 48 hours on a microplate with 96 wells in a RPMI1640 solution containing 10% of a fetal bovine serum (hereinafter referred to simply as a 10% FCS-RPMI solution) together with Con A (5 μg/ml) and the compound of the formula (I) (in an incubator, 5% CO2, at 37° C.). Then, 0.5 μCi of ^3 H-thymidine (hereinafter referred to simply as ^3 H-TdR) was added thereto, and the mixture was further cultured for 4 hours. Then, cells were collected by a cell harvester, and the radioactivity (dpm) of ^3 H-TdR uptaken into cells was measured. Such measured amounts of ^3 H-TdR uptaken into the cells were used as indices of the mitogenic response of the murine thymocytes, and the radioactivity at each concentration (from 0.001 to 1,000 μg/ml) of the compound of the formula (I) was compared with the control value treated solely by Con A, to calculate IC50 value. In these Tables 12 and 13, the results of murine thymocytes are shown by (a).
For the basic procedure of this test, reference was made to Selected methods in cellular immunology, p. 144-146 (translated by Katsuyuki Imai et al., published by Rikogakusha, (1982)).

[2] = system: murine mixed lymphocyte reaction (spleen cells of BALB/c and C57BL/6 mice); assay: Effects on the murine mixed lymphocyte reaction (3H-TdR uptake); type: cell-based; conditions: Mus musculus, BALB/c + C57BL/6 spleen cells, 48 hours, read-out: IC50 value, b (murine mixed lymphocyte reaction)
Method: Using spleen cells of BALB/c and C57BL/6 mice, the effect of the compound of the formula (I) on the murine mixed lymphocyte reaction in both sides, was studied. Namely, spleen cells of both types of mice were mixed in an equal amount of 5×10^5 cells each, and the mixed cells were cultured together with the compound of the formula (I) for 48 hours on a microplate with 96 wells by a 10% FCS-RPMI solution (in an incubator, 5% CO2, at 37° C.). Then, 0.5 μCi of ^3 H-TdR was added thereto, and the mixture was further cultured for from 16 to 18 hours. Then, cells were collected by a cell harvester, and the radioactivity (dpm) of ^3 H-TdR uptaken into the cells, was measured. Such measured amounts of ^3 H-TdR uptaken into the cells were used as indices for the mixed lymphocyte reaction, and the radioactivity at each concentration (from 0.001 to 1,000 μg/ml) of the compound of the formula (I) was compared with the non-treated control value, to calculate the Ic50 value.
For the basic procedure for this test, reference was made to Selected methods in cellular immunology, p. 147-149 (translated by Katsuyuki Imai et al., published by Rikogakusha, (1982)).

[3] = system: murine bone mallow cells; assay: Effects on the murine bone mallow cells (proliferation, 3H-TdR uptake); type: cell-based, BALB/c mouse; conditions: Mus musculus, bone marrow cells; 20% L929 culture supernatant, 48 hours, 3H-TdR uptake; Tables 12-15; read-out: IC50 value, c (murine bone mallow cells)
Method: Bone mallow cells were removed from the femur of a BALB/c mouse and suspended in a 10% FCS-RPMI solution. The cell suspension was put into a plastic Petri dish having a diameter of 10 cm and left to stand still (in an incubator, 5% CO2, at 37° C.). Two hours later, only floating cells were recovered, and adhesion cells were removed. 1×10^5 floating cells were cultured for 48 hours together with a 20% culture supernatant of L929 fibroblastoma and the compound of the formula (I) on a microplate with 96 wells by a 10% FCS-RPMI solution (in an incubator, 5% CO2, at 37° C.). Then, 0.5 μCi of ^3 H-TdR was added thereto, and the mixture was further cultured for 4 hours. Then, cells were collected by a cell harvester, and the radioactivity (dpm) of ^3 H-TdR uptaken into the cells, was measured. Such measured amounts of ^3 H-TdR uptaken into the cells were used as indices for the proliferation of bone mallow cells, and the radioactivity at each concentration (from 0.001 to 1,000 μg/ml) of the compound of the formula (I) was compared with the control value where the L929 culture supernatant was added alone, to calculate the IC50 value. In these Tables 12 and 13, the results of the bone mallow cells are shown by (c).
For the basic procedure of this test, reference was made to Seikagakujikken Koza compiled by Japan Biochemistry Association, Vol. 5, p. 266-270 (published by Tokyo Kagaku Dojin in 1986).

[4] = system: IgGl antibody production from murine spleen B cells; assay: Effects on the IgGl antibody production from murine spleen cells (LPS + IL4); type: cell-based, BALB/c mouse; conditions: Mus musculus, B-cell, 168 h; spleen B cells, LPS 10 μg/ml, IL4 100 U/ml, 7 days, enzyme-immunoassay; read-out: IC50 value, IgGl antibody production
Method: (§1) Using murine spleen B cells, the effects of the compound of the formula (I) on the IgGl, IgM and IgE antibody production induced by the stimulation by LPS (lipopolysaccharide; Product No. 520.02051, manufactured by Wako Junyaku) and IL4 (interleukin 4), were studied. Namely, spleen cells of a BALB/c mouse were treated with a murine anti-Thy-1 antibody (obtained from Chiba University) and a rabbit complement (Product No. 3051, manufactured by cedarlane) to remove T cells, and 3×10^5 spleen B cells were cultured for 7 days together with 10 μg/ml of LPS, 100 U/ml of mouse-recombinant IL4 (Product No. MIL-4C, manufactured by Genzyme) and each concentration (from […]) of the compound of the formula (I) on a microplate with 96 wells by a 10% FCS-RPMI solution (in an incubator, 5% CO2, at 37° C.).
(§2) For the basic procedure of this test, reference was made to The Journal of Immunology, Vol. 136, p. 4538, (1986).
(§3) The amount of each antibody in the cell culture supernatant hereby obtained, was measured by the following enzyme-immunoassay. Firstly, on a microplate with 96 wells, 1 μg/ml of a rabbit anti-mouse IgGl antibody (Product No. 36243, manufactured by Cappel), 1 μg/ml of a goat anti-mouse IgM antibody (Product No. 0611-0201, manufactured by Cappel) or 10 μg/ml of a rat anti-mouse IgE monoclonal antibody (Product No. LO-ME-2, manufactured by Experimental Immunology) was coated (50 μl/well, at room temperature for 60 minutes), and then a nonspecific bond was blocked by a 0.1% bovine serum albumin-containing 10 mM sodium phosphate buffer (pH 7.2) (at room temperature for 60 minutes). Then, the above-mentioned cell culture supernatant or its diluted solution was added in an amount of 50 μl/well and reacted at room temperature for 60 minutes. Further, an alkaline phosphatase-labeled rabbit anti-mouse IgGl antibody (Product No. 61-0122, manufactured by Zymet) diluted 1,000 times, an alkaline phosphatase-labeled rabbit anti-mouse IgM antibody (Product No. 61-6822, manufactured by Zymet) diluted 2,000 times, or an alkaline phosphatase-labeled goat anti-mouse IgE antibody (Product No. PA-284, manufactured by Binding Site) diluted 500 times was added in an amount of 50 μl/well and reacted at room temperature for 60 minutes. 100 μl/well of a 10% diethanol amine buffer solution (pH 9.8) containing p-nitrophenyl phosphate as an enzyme substrate, was reacted, and the absorbance at 405 nm was measured. The amount of each antibody was calculated from the calibration curve of each standard antibody, and the IC50 value of the compound of the formula (I) on the antibody production was calculated using as the control value a value obtained in the absence of the compound of the formula (I).

[5] = system: IgM antibody production from murine spleen B cells; assay: Effects on the IgM antibody production from murine spleen cells (LPS + IL4); type: cell-based, BALB/c mouse; conditions: Mus musculus, B-cell, 168 h; spleen B cells, LPS 10 μg/ml, IL4 100 U/ml, 7 days, enzyme-immunoassay; read-out: IC50 value, IgM antibody production
Method: as §1, §2, §3

[6] = system: IgE antibody production from murine spleen B cells; assay: Effects on the IgE antibody production from murine spleen cells (LPS + IL4); type: cell-based, BALB/c mouse; conditions: Mus musculus, B-cell, 168 h; spleen B cells, LPS 10 μg/ml, IL4 100 U/ml, 7 days, enzyme-immunoassay; read-out: IC50 value, IgE antibody production
Method: as §1, §2, §3

| SMILES | IC50 [1] [µg/mL] | IC50 [2] [µg/mL] | IC50 [3] [µg/mL] | IC50 [4] [µg/mL] | IC50 [5] [µg/mL] | IC50 [6] [µg/mL] |
| --- | --- | --- | --- | --- | --- | --- |
| O=C(CCCCCCCCCCCCCCCO)O[C@H]1C=C[C@H]2CO[C@@H]1O2 [Compound 49, 1,6-anhydro-3,4-dideoxy-2-O-(16-hydroxy)hexadecanoyl-β-D-threo-hex-3-enopyranose] | 11 (≈ 28.8 µM) | 32 | 41 (≈ 107 µM) | < 0.1 | 0.43 | < 0.1 |
| Cc1ccccc1C(=O)O[C@H]1C=C[C@H]2CO[C@@H]1O2 [Compound 50] | 52 (≈ 211 µM) | 180 | 380 (≈ 1540 µM) | < 0.001 | < 0.001 | < 0.001 |
| O[C@@H]1C=C[C@H]2CO[C@@H]1O2 [Compound 103, 1,6-anhydro-3,4-dideoxy-β-D-erythro-hex-3-enopyranose] | 780 (≈ 6090 µM) | > 1000 | > 1000 | 0.45 | 1.3 | 2.1 |
| CCCCCCCCCCCCCCCC(=O)O[C@@H]1C=C[C@H]2CO[C@@H]1O2 [Compound 109] | 550 (≈ 1500 µM) | 740 | > 1000 | < 0.1 | 31 | < 0.1 |
